Laboratory results: PMC8165439, “Chymase Dependent Pathway of Angiotensin II Generation and Rapeseed Derived Peptides for Antihypertensive Treatment of Spontaneously Hypertensive Rats” (Frontiers in Pharmacology, 2021)
Each block holds one compound with its values, some of them ahead of it. Where a SMILES comes first, the peptide text is derived from it. Where no end group is shown, it is not given here.

Tests used:
[1] = molecular target: T1, Human chymase (Homo sapiens, UniProt P23946); settings: pH 7.8
T1 sequence (P23946 22-247): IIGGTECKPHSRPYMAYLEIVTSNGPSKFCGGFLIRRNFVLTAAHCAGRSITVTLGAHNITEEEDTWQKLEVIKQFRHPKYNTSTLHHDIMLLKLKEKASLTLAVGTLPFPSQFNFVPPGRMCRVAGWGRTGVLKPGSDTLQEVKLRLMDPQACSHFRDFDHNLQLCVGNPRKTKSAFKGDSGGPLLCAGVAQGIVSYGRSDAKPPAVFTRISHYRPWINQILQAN
Procedure: Chymase digestion of ANG I in the presence of synthetized peptides was performed in vitro. The concentration of remaining ANG I was calculated in order to assess the ability of peptides to inhibit chymase.
Human chymase (72 units/mg protein; 259 µg protein/ml, vial volume 187 μl, Sigma) stock solution was prepared by diluting the initial sample of enzyme with Tris*HCl buffer (0.27 mM Tris*HCl, pH 7.8 and 150 mM NaCl) to obtain the final chymase concentration of 1.379 μg/ml.
Reactions (during which ANG I was converted to ANG II through removal of two C-terminal residues) were stopped at the desired times (0, 10, 20, 30, 40, 60, 80 min) by addition of 10 μl of 98% FA. […] Positive electrospray (ES+) was used as the ionization method for mass spectrometry.
The inhibitory effect of each peptide on chymase activity was expressed as remaining amount of substrate vs. time of digestion and presented as percentage ratio and calculated by the following formula [ANG It=X min/ANG It=0 min]x100% where ANG It=X min is the peak area of angiotensin I at desired time of digestion, ANG It=0 min is the peak area of angiotensin I at 0 min of digestion.

[2] = system: spontaneously hypertensive rats (SHR); assay: Metabolic parameters in metabolic cages during chronic treatment; assay type: in vivo, rat; settings: mean ± SEM
Procedure: (§1) Systolic and diastolic blood pressure (SBP and DBP, respectively) and heart rate (HR) were measured in conscious unrestrained rats by telemetry technique, once a week for 24 h. 24 hour observations in metabolic cages (Tecniplast S. p.A. Buguggiate, Italy) were performed weekly. The diuresis, weight of feces, food and water intake were measured; urine and blood samples were collected on day 0, 7th and 14th, and were centrifuged at 1200 g (blood for 15 min and urine for 5 min), then the samples were stored at –80°C until analysis.
(§2) On day 0 all animals received saline (0.9% NaCl) and then, for 14 consecutive days, the substance tested. Chymostatin (CH, 2 mg/kg/day) was dissolved in DMSO and then diluted with PBS (final concentration of DMSO was 0.15%). Peptides RIY (7.5 mg/kg/day) and VWIS (12.5 mg/kg/day) were dissolved in saline (0.9% NaCl, S). The substances were administered through the femoral vein during 10 min in the volume of 0.5 ml to young SHR (infusion rate: 3 ml/h) and 1 ml to adult rats (infusion rate: 6 ml/h). Control rats received solvents (either DMSO or saline) in the same volume.
(§3) Urine volume was determined by gravimetric method. Sodium and potassium concentration in urine and plasma were measured by flame photometry (PFP7/C, Jenway Ltd, Stone, United Kingdom). Urine and plasma osmolality were measured by freezing point depression (Osmomat® 030 M, Gonotec, Berlin, Germany). These parameters were used to determine the excretion rates of total solutes (UosmV), sodium (UNaV) and potassium (UKV). Commercially available ELISA kits were used to measure nitric oxide metabolites (NOx, SunRed, Shanghai) and albumin (Albumin, ICL, Portland) concentration in urine. Excretion rate of NOx (UNOxV) and albumin (UAE) were calculated.

[3] = system: spontaneously hypertensive rats (SHR); assay: Plasma and urine parameters during chronic treatment; assay type: in vivo, rat; settings: mean ± SEM
Procedure: as §1, §2, §3

[4] = system: ACE; settings: ref Marczak et al. (2003); cited from earlier work
[5] = system: adult SHR; settings: tail cuff method, ref Kirimura et al. (2005); cited from earlier work
Excerpt: [Kirimura et al. (2005)], studied NK3201, another chymase inhibitor. […] However, the study by [Kirimura et al. (2005)], in addition to the obvious difference in the protocol (single oral dose vs. our chronic intravenous infusion) has another limitation: the tail cuff method was used to measure blood pressure.

[6] = adult SHR (SHR-16), day 0 (baseline)
[7] = adult SHR (SHR-16), day 7 of daily iv CH 2, RIY 7.5, VWIS 12.5 mg/kg/day
[8] = adult SHR (SHR-16), day 7 of daily iv treatment
[9] = adult SHR (SHR-16), day 14 of daily iv CH 2, RIY 7.5, VWIS 12.5 mg/kg/day
[10] = adult SHR (SHR-16), day 14 of daily iv treatment
[11] = young SHR (SHR-6), day 0 (baseline), CH n=8-10, RIY n=5, VWIS n=5-6
[12] = young SHR (SHR-6), day 0 (baseline)
[13] = young SHR (SHR-6), day 7 of daily iv CH 2, RIY 7.5, VWIS 12.5 mg/kg/day
[14] = young SHR (SHR-6), day 7 of daily iv treatment
[15] = young SHR (SHR-6), day 14 of daily iv CH 2, RIY 7.5, VWIS 12.5 mg/kg/day
[16] = young SHR (SHR-6), day 14 of daily iv treatment

half-life time of ANG I (T1/2) in human chymase solution in absence of inhibitory peptides [1]: 16 min
Compound: DRVYIHPFHL [ANG I, angiotensin I]

Diuresis [2, 6]: 7.1 ± 1.4 µL/min
Faeces [2, 6]: 11±1 g/24 h
Food intake [2, 6]: 20±1 g/24 h
Water intake [2, 6]: 30±1 g/24 h
Diuresis [2, 8]: 7.0 ± 1.3 µL/min
Faeces [2, 8]: 11±2 g/24 h
Food intake [2, 8]: 22±1 g/24 h
Water intake [2, 8]: 34±1 g/24 h
Diuresis [2, 10]: 8.0 ± 1.8 µL/min
Faeces [2, 10]: 11±1 g/24 h
Food intake [2, 10]: 19±1 g/24 h
Water intake [2, 10]: 32±2 g/24 h
Diuresis [2, 12]: 6.3 ± 0.8 µL/min
Faeces [2, 12]: 10±1 g/24 h
Food intake [2, 12]: 16±1 g/24 h
Water intake [2, 12]: 22±2 g/24 h
Diuresis [2, 14]: 7.2 ± 0.7 µL/min
Faeces [2, 14]: 13±1 g/24 h
Food intake [2, 14]: 19±1 g/24 h
Water intake [2, 14]: 32±7 g/24 h
Diuresis [2, 16]: 8.5 ± 0.8 µL/min
Faeces [2, 16]: 14±1 g/24 h
Food intake [2, 16]: 20±1 g/24 h
Water intake [2, 16]: 30±2 g/24 h
Plasma osmolality ([3]; adult SHR (SHR-16), day 0 (baseline), CH n=5-8, RIY n=5-6, VWIS n=5-6): 313±1 mOsm/l
Plasma K+ concentration [3, 6]: 4.20 ± 0.18 mmol/L
Plasma Na+ concentration [3, 6]: 133.0 ± 0.8 mmol/L
Potassium excretion [3, 6]: 0.97 ± 0.21 µmol/min
Sodium excretion [3, 6]: 0.90 ± 0.18 µmol/min
Total solute excretion [3, 6]: 7.52±1.54 µOsm/min
Plasma osmolality [3, 7]: 308±1 mOsm/l
Plasma K+ concentration [3, 8]: 3.78 ± 0.31 mmol/L
Plasma Na+ concentration [3, 8]: 130.2 ± 4.5 mmol/L
Potassium excretion [3, 8]: 1.26 ± 0.27 µmol/min
Sodium excretion [3, 8]: 1.02 ± 0.19 µmol/min
Total solute excretion [3, 8]: 9.90±2.21 µOsm/min
Plasma osmolality [3, 9]: 302±2 mOsm/l
Plasma K+ concentration [3, 10]: 3.96 ± 0.06 mmol/L
Plasma Na+ concentration [3, 10]: 135.8 ± 4.7 mmol/L
Potassium excretion [3, 10]: 0.95 ± 0.21 µmol/min
Sodium excretion [3, 10]: 0.81 ± 0.16 µmol/min
Total solute excretion [3, 10]: 10.42±2.06 µOsm/min
Plasma osmolality [3, 11]: 295±2 mOsm/l
Plasma K+ concentration [3, 12]: 4.42 ± 0.20 mmol/L
Plasma Na+ concentration [3, 12]: 131.8 ± 3.0 mmol/L
Potassium excretion [3, 12]: 0.73 ± 0.20 µmol/min
Sodium excretion [3, 12]: 0.69 ± 0.13 µmol/min
Total solute excretion [3, 12]: 5.48±1.40 µOsm/min
Plasma osmolality [3, 13]: 297±1 mOsm/l
Plasma K+ concentration [3, 14]: 4.45 ± 0.16 mmol/L
Plasma Na+ concentration [3, 14]: 133.40 ± 5.6 mmol/L
Potassium excretion [3, 14]: 1.75 ± 0.15 µmol/min
Sodium excretion [3, 14]: 0.84 ± 0.13 µmol/min
Total solute excretion [3, 14]: 7.11±0.95 µOsm/min
Plasma osmolality [3, 15]: 293±3 mOsm/l
Plasma K+ concentration [3, 16]: 4.33 ± 0.14 mmol/L
Plasma Na+ concentration [3, 16]: 131.4 ± 4.5 mmol/L
Potassium excretion [3, 16]: 0.72 ± 0.11 µmol/min
Sodium excretion [3, 16]: 0.63 ± 0.08 µmol/min
Total solute excretion [3, 16]: 7.16±0.75 µOsm/min
Compound: CC[C@H](C)[C@H](NC(=O)[C@H](Cc1c[nH]c2ccccc12)NC(=O)[C@@H](N)C(C)C)C(=O)N[C@@H](CO)C(=O)O [VWIS, Valine-Tryptophan-Isoleucine-Serine] (H-VWIS-OH)
Body weight ([2]; adult SHR (SHR-16), day 0 (baseline), CH n=8, RIY n=5-6, VWIS n=5-6): 304 ± 8 g
Body weight [2, 7]: 312 ± 11 g
Body weight [2, 9]: 329 ± 11 g
Body weight [2, 11]: 110 ± 11 g
Body weight [2, 13]: 145 ± 13 g
Body weight [2, 15]: 174 ± 13 g
stability / conversion to dipeptide in the presence of ACE [4]: transformed rapidly to dipeptide VW

Compound: O=CNc1cnc(-c2ccccc2)n(CC(=O)NC(Cc2ccccc2)C(=O)C(=O)CCCOc2ccccn2)c1=O (stereo not drawn) [NK3201]
blood pressure after a single oral dose [5]: did not lower blood pressure
